The nature of one series: in vitro. Particulars: human, tissue homogenate.
The next series has as its system U-87 MG cells. Nature of the series: Cell proliferation (BrdU ELISA). The format is cell-based, human. Particulars: >7 μM, every two days, 6 days of treatment. As for the experimental part:
In vitro antitumour effects of TPGnRH and PAX-loaded TPGnRH were assessed in U-87 MG cells, UP-007, UP-029, SEBTA-023 MDA-MD-231 [triple negative (ER^−, PR—, HER2^−) breast cancer cell line] and SK-OV-3 (human ovarian carcinoma with a low expression of GnRH-R). Cells were seeded at 1,400 cells/cm^2 and allowed to attach and grow for 3 days. In experiments with TPGnRH nanofibers alone (to obtain the IC50 value in each cell line), cells were treated with medium supplemented with the peptide solutions in PBS (0.7 to 700 μM) to achieve a final concentration of 0.07 to 70 μM per well. Media was replaced by fresh media every two days for 6 days. […] On day 4, PAX-loaded TPGnRH nanofibers containing 1 nM of PAX and 7 or 35 μM of TPGnRH were added and the effect on cell viability, proliferation, cell cycle, and apoptosis was assessed on day 6. Only for the MDA-MB-231 cells, on day 4, PAX-loaded TPGnRH nanofibers containing 10 nM of PAX and 7 or 35 μM of TPGnRH were added and the effect on cell viability, proliferation, cell cycle, and apoptosis was also assessed on day 6. […] Cell metabolic activity was measured using MTT assay. […] Afterwards, dimethyl sulfoxide (100 μL) was added to the wells to dissolve the formazan crystals and the absorbance was measured at 570 and 690 nm. […] Cells were incubated with BrdU for 24 hours before the end of the pre-determined time-points. […]

A further series deals with T1, GnRH-R (Homo sapiens, UniProt P30968).
T1 construct: The intracellular cAMP was quantified using the Direct cAMP ELISA kit; endogenous in cells
T1 sequence (P30968 1-328): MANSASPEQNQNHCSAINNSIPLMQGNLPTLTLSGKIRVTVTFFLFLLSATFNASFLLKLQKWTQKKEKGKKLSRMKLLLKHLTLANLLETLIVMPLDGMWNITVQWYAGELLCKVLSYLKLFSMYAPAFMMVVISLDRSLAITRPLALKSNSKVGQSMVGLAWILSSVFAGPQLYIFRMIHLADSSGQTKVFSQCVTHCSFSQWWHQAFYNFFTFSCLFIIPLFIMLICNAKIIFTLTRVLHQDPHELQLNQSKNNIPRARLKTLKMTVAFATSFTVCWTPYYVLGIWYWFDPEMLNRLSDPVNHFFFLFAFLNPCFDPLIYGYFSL
Briefly: Forskolin-induced intracellular cAMP ELISA. The format is cell-based. Particulars: forskolin 5 μM, 15 minutes.

Series [1] can be described thus: Circular dichroism, temperature and dilution stability of nanofibers. The format is physicochemical. To be noted: CD, 15 to 50° C., dilutions 1:10-1:100. As for the experimental part: Secondary structure was assessed using circular dichroism (CD). TPGnRH solutions (70 or 700 μM) were prepared in aqueous 0.9% sodium chloride and analysed at 20±0.1° C. using Applied Photophysics Pi180 spectropolarimeter (Surrey, UK). For the temperature-dependent studies, the peptide was incubated at a range of temperature (15 to 50° C.) and the spectra were collected at 5° C. intervals. To investigate the effect of dilution, peptide solutions were diluted in 0.9% (w/v) sodium chloride solution at 20° C. Data were collected every 1 nm over the wavelength range of 200-360 nm. X-ray diffraction (XRD) studies were carried out on stalks prepared by suspending drops of TPGnRH solutions (70 or 700 μM) between the ends of the wax-coated capillaries and allowing them to dry at room temperature. Stalks were vertically mounted onto a four-axis goniometer of a FR-E+X-Ray diffractomer (Rigaku, Sevenoaks, UK).

Experimental for in vitro: Fresh blood, obtained from adult male Wistar rats, was collected in sterile the 170 I.U. lithium heparin-coated tubes (Vacutainer, BD Bioscience, UK). Blood was centrifuged immediately at 2,000 g for 15 minutes (4° C.) and supernatant was collected and diluted to 50% (v/v) with PBS. Livers and brains were obtained from adult male Wistar rats, and the tissues were blotted to dryness, weighed, sliced into pieces, and homogenised with ice-cold PBS (in 2 mL of buffer g^−1 of tissue) using the glass homogeniser. Then, tissue homogenates were centrifuged at 4,300 g for 1 hour (4° C.) and the supernatants collected. Glioblastoma cell homogenates were prepared using U-87 MG cells. Cells were cultured in Eagle's Minimum Essential Medium (EMEM) supplemented with 10% (v/v) heat-inactivated fetal bovine serum (FBS), 1% (v/v) of non-essential amino acids (NEAA) and 1 mM of sodium pyruvate in T75 flasks with a surface area of 75 cm^2 and maintained in a humidified atmosphere of 5% CO2 at 37° C. Breast cancer cell homogenates were prepared using MDA-MB-231 cells. Cells were cultured in Dulbecco's Modified Eagle Medium (DMEM) supplemented with high levels of glucose (4.5 g/L), 10% (v/v) heat-inactivated fetal bovine serum (FBS), 1% (v/v) of non-essential amino acids (NEAA) and penicillin and streptomycin (500 units/mL) in T75 flasks with a surface area of 75 cm^2 and maintained in a humidified atmosphere of 5% CO2 at 37° C. Media was changed for both cell lines every 3 to 4 days. After reaching confluence, cells were washed twice with Hank's Balanced Salt Solution (HBSS) and incubated with ˜2 mL of TrypLE Enzyme at 37° C. for ˜3 minutes. Then, complete media were added, and cells were centrifuged at 1,000 rpm for 5 minutes in C-28A centrifuge (Boeco, Germany). U-87 MG or MDA-MB-231 cells (˜10×10^6 cells mL^−1) were re-suspended in ice-cold PBS, and homogenised with a 2×5 second pulses with the probe sonicator (UP200S Ultrasonic processor, SciMed, 200 watts, amplitude of 60%). Cell debris were removed by centrifugation at 2,000 rpm for 5 minutes (Jouan B4i, Thermo Scientific, Paisley, UK). Supernatant was collected and stored at −80° C. Total protein concentration in the homogenates was determined using the Bradford assay with bovine serum albumin as a standard. Diluted plasma, tissue or cell homogenates were pre-warmed during ˜30 minutes at 37° C. Peptide stock solutions (Glu-GnRH, goserelin acetate and TPGnRH, 5 mM in PBS, 500 μL) were prepared and added to the homogenate solutions (120 μL). PAX-loaded nanofibers prepared at a ratio of 1:7.36 [PAX:TPGnRH consisting of 3 μmol (2.56 mg mL^−1) of PAX, 22.02 μmol (31.46 mg mL^−1) of TPGnRH], as previously described, and further diluted in PBS to achieve a concentration of 5 mM of TPGnRH and 500 nM of PAX (120 μL) were added to the homogenates. At various time intervals, an aliquot was collected (80 μL) and added to ice-cold ACN (80 μL) to quench the enzymatic activity. Samples were stored at −80° C. for at least 3 hours to maximise protein precipitation. Samples were vortexed for 15 minutes, centrifuged for 15 minutes at 12,000 rpm, and the supernatants were collected and analysed by RP-HPLC.

In turn, `CCCCCCCCCCCCCCCC(=O)Oc1ccc(C[C@H](NC(=O)[C@H](CO)NC(=O)[C@H](Cc2c[nH]c3ccccc23)NC(=O)[C@H](Cc2c[nH]cn2)NC(=O)[C@@H](N)CCC(=O)O)C(=O)NCC(=O)N[C@@H](CC(C)C)C(=O)N[C@@H](CCCNC(=N)N)C(=O)N2CCC[C@H]2C(=O)NCC(N)=O)cc1` [TPGnRH, Tyrosine (O-Palmitoyl)-Glu-GnRH] showed a half-life at 4.03 mM in the series “in vitro” of 51.9 ± 8.73 h. In the series with U-87 MG cells, the “effect on cell proliferation” value is “significant reduction in cell proliferation”. For the same molecule, on GnRH-R, the “effect on forskolin-induced cAMP intracellular accumulation” value is on record as “counteracted the forskolin-induced cAMP intracellular accumulation”. Also, the “temperatures at which nanofibers are physically stable” value in series [1] was less than 40 °C.

These data come from patent publication US20210038730A1, “PEPTIDE NANOFIBERS” (UNIVERSITY OF PORTSMOUTH HIGHER EDUCATION CORPORATION, priority 2018, published 2021).
